In publication PMC9143043, “Synthesis and Biological Evaluation of 5′-O-Fatty Acyl Ester Derivatives of 3′-Fluoro-2′,3′-dideoxythymidine as Potential Anti-HIV Microbicides” (Molecules, 2022):
Read-outs that look alike come from different tables or passages of the source.

Columns and labels:
Cytotoxicity assay (MTS) = type: cell-based; settings: human, HeLa cells (ATCC CCL-2.1), Table 2; MTS; 50% effective concentration
[1] = pKa by dip-probe absorption spectroscopy (D-PAS); type: physicochemical; settings: methanol-water co-solvent, Yasuda-Shedlovsky extrapolation
Description: (§1) Physicochemical properties including pKa, Log D, and solubility were determined for 5 (as a model compound). […] It was not possible to measure the partition coefficient (Log P) of the fatty acyl derivatives of FLT and AZT in a standard n-octanol/water mixture because of the insolubility of the compounds in water. The cLog P value was calculated as 5.23 using ChemDraw. […] Since most of 5 is in its neutral form, the Log D value will correspond to the Log P value.
The pKa for 5 was determined using dip-probe absorption spectroscopy (D-PAS). The sample was initially titrated in a fast titration between pH 1.8 and pH 12.1 at concentrations of 33–49 µM under aqueous conditions. Precipitation of the sample from the solution was observed below approximately pH 11. The sample was subsequently titrated under methanol–water co-solvent conditions in two triple titrations from pH 12.2 to pH 3.7 at concentrations of 31–49 µM. The methanol ratio varied from to 25.5–50.8%. No precipitation of the sample from the solution was observed under this condition. The pKa was determined from the spectroscopic data by the Yasuda–Shedlovsky extrapolation of the individual obtained results.

[2] = Log D by liquid-liquid distribution chromatography; type: physicochemical; settings: octanol-coated column with octanol-saturated mobile phases, pH 7.4
Description: as §1
The Log P of 5 was initially investigated by the pH-metric (potentiometric) method. The sample was titrated in three triple titrations from pH 2.5 to pH 11.9 at concentrations of 0.7–1.1 mM in various ratios of octanol/water. The results indicated high sample lipophilicity, although the Log P could not be determined due to the apparent pKa in octanol shifting out of the measurable range. Therefore, the Log D of 5 at pH 7.4 was measured as 5.04 using liquid–liquid distribution chromatography. The Profiler LDA is an isocratic chromatography system that uses an octanol-coated column with octanol saturated mobile phases adjusted to pH 7.4. […]

[3] = Solubility (shake-flask, UV detection; organic solvents); type: physicochemical
Description: Solubility for 5 was investigated by the shake-flask methodology with UV-spectroscopic sample detection. To produce a saturated solution of 5, approximately 1 mg of solid material was added to 10 mL of an aqueous solution, which was adjusted to pH 2.3 with 0.5 M HCl. The sample was then sonicated in an ultrasonic bath for several hours (at room temperature) before being left to equilibrate for a period of approximately 3 days. The supernatant was then filtered under vacuum through a 0.2 µm PVDF filter plate, and the UV absorption spectrum of the sample was measured (after adjusting the pH of the solution to 11.8 with 0.5 M KOH). Molar absorption coefficients of 5 were obtained at pH 11.8 for 25 µM, 50 µM, and 100 µM solutions of 5, in order to quantify the concentration of the sample in the saturated supernatant. […] However, 5 was less soluble in DMSO (~4.1 mg/mL).

Structure (SMILES): Cc1cn([C@H]2C[C@H](F)[C@@H](COC(=O)CCCCCCCCCCCN=[N+]=[N-])O2)c(=O)[nH]c1=O [Compound 5, 3′-fluoro-2′,3′-dideoxy-5′-O-(12-azidododecanoyl)thymidine]
- EC50 (Cytotoxicity assay (MTS)): 1600 µM
- pKa [1]: 9.67
- chromatographic logD [2]: 5.04
- solubility ([3]; DMSO, organic solvent or mixture, DMSO, read-out: solubility in DMSO): ~4100 µg/mL
- solubility ([3]; aqueous solution adjusted to pH 2.3, pH 2.3, aqueous buffer, thermodynamic from solid, shake-flask, UV detection, read-out: aqueous solubility (upper limit)): ≤ 0.51 µM
- solubility ([3]; ethanol, organic solvent or mixture, ethanol, read-out: solubility in ethanol): > 30000 µg/mL
- solubility in water/methanol (60:40) ([3]; mixture of water/methanol (60:40)): completely soluble
